The subject of one data set is Puccinia recondita. The data set is described as follows: In vivo preventive test on Puccinia recondita (brown rust on wheat). To be noted: wheat plants, preventive spray, evaluated 11 days after inoculation. How it is done:
The young plants of wheat are treated by spraying the active ingredient prepared as described above. Control plants are treated only with an aqueous solution of acetone/Dimethyl sulfoxide/Tween®. After 24 hours, the plants are contaminated by spraying the leaves with an aqueous suspension of Puccinia recondita spores.

The subject of another data set is Pyrenophora teres. The data set is described as follows: In vivo preventive test on Pyrenophora teres (net blotch on barley). To be noted: barley plants, preventive spray, evaluated 14 days after inoculation. The procedure:
The young plants of barley are treated by spraying the active ingredient prepared as described above. Control plants are treated only with an aqueous solution of acetone/Dimethyl sulfoxide/Tween®. After 24 hours, the plants are contaminated by spraying the leaves with an aqueous suspension of Pyrenophora teres spores.

A further data set concerns Sphaerotheca fuliginea. The experiment in a line: In vivo preventive test on Sphaerotheca fuliginea (powdery mildew on cucurbits). To be noted: gherkin plants, preventive spray, evaluated 15 days after inoculation. The procedure:
The young plants of gherkin are treated by spraying the active ingredient prepared as described above. Control plants are treated only with an aqueous solution of acetone/Dimethyl sulfoxide/Tween®. After 24 hours, the plants are contaminated by spraying the leaves with an aqueous suspension of Sphaerotheca fuliginea spores.

For another data set, the system named is Uromyces appendiculatus. The data set is described as follows: In vivo preventive test on Uromyces appendiculatus (bean rust). The settings on record: bean plants, preventive spray, evaluated 11 days after inoculation. The procedure:
The young plants of bean are treated by spraying the active ingredient prepared as described above. Control plants are treated only with an aqueous solution of acetone/Dimethyl sulfoxide/Tween®. After 24 hours, the plants are contaminated by spraying the leaves with an aqueous suspension of Uromyces appendiculatus spores.

Data set [1] deals with Blumeria graminis fsp. hordei. The data set is described as follows: Blumeria test (barley)/preventive. The format is in vivo. The settings on record: 500 ppm of active ingredient, preventive, evaluated 7 days after inoculation. How it is done: (§1) Solvent: 49 parts by weight of N,N-dimethylacetamide Emulsifier: 1 part by weight of alkylaryl polyglycol ether To produce a suitable preparation of active compound, 1 part by weight of active compound or active compound combination is mixed with the stated amounts of solvent and emulsifier, and the concentrate is diluted with water to the desired concentration. To test for preventive activity, young plants are sprayed with the preparation of active compound or active compound combination at the stated rate of application. After the spray coating has been dried, the plants are dusted with spores of Blumeria graminis fsp. hordei. The plants are placed in the greenhouse at a temperature of approximately 18° C. and a relative atmospheric humidity of approximately 80% to promote the development of mildew pustules.

For another data set, the system named is Fusarium culmorum. The data set is described as follows: Fusarium culmorum-test (wheat)/preventive. Type of data set: in vivo. The settings on record: 500 ppm of active ingredient, preventive, evaluated 5 days after inoculation. The procedure: Solvent: 49 parts by weight of N,N-dimethylacetamide
Emulsifier: 1 part by weight of alkylaryl polyglycol ether
To produce a suitable preparation of active compound, 1 part by weight of active compound or active compound combination is mixed with the stated amounts of solvent and emulsifier, and the concentrate is diluted with water to the desired concentration.
To test for preventive activity, young plants are sprayed with the preparation of active compound or active compound combination at the stated rate of application. After the spray coating has been dried, the plants are slightly injured by using a sandblast and afterwards they are sprayed with a conidia suspension of Fusarium culmorum.
The plants are placed in the greenhouse under a translucent incubation cabinet at a temperature of approximately 22° C. and a relative atmospheric humidity of approximately 100%.
The test is evaluated 5 days after the inoculation. 0% means an efficacy which corresponds to that of the untreated control, while an efficacy of 100% means that no disease is observed.

The subject of another data set is Fusarium graminearum. Type of data set: in vivo. The settings on record: 500 ppm of active ingredient; barley, preventive; evaluated 5 days after inoculation.
Data set [2] concerns Fusarium nivale (var. majus). The data set is described as follows: Fusarium nivale (var. majus)-test (wheat)/preventive. The format is in vivo. The settings on record: 500 ppm of active ingredient, preventive, evaluated 5 days after inoculation. How it is done: as §1, with “slightly injured by using a sandblast and afterwards they are sprayed” for “dusted”, “a conidia suspension” for “spores”, “Fusarium nivale (var. majus).” for “Blumeria graminis fsp. hordei. The plants are placed in the greenhouse at a temperature of approximately 18° C. and a relative atmospheric humidity of approximately 80% to promote the development of mildew pustules.”

Another data set concerns Leptosphaeria nodorum. The experiment in a line: Leptosphaeria nodorum test (wheat)/preventive. Type of data set: in vivo. To be noted: 500 ppm of active ingredient, preventive, evaluated 8 days after inoculation. How it is done:
as §1, with “sprayed” for “dusted”, “a spore suspension” for “spores”, “Leptosphaeria nodorum. […]” for “Blumeria graminis fsp. hordei.”, “22°” for “18°”, “80%.” for “80% to promote the development of mildew pustules.”

A further data set concerns Phakopsora pachyrhizi. The data set is described as follows: Phakopsora test (soybeans)/preventive. Type of data set: in vivo. To be noted: preventive, evaluated 7 days after inoculation.
The next data set concerns Venturia inaequalis. The experiment in a line: Venturia test (apples)/preventive. Type of data set: in vivo. To be noted: 100 ppm of active ingredient, preventive, evaluated 10 days after inoculation. How it is done: Solvent: 24.5 parts by weight of acetone • 24.5 parts by weight of dimethylacetamide Emulsifier: 1 part by weight of alkylaryl polyglycol ether To produce a suitable preparation of active compound, 1 part by weight of active compound is mixed with the stated amounts of solvent and emulsifier, and the concentrate is diluted with water to the desired concentration. To test for preventive activity, young plants are sprayed with the preparation of active compound at the stated rate of application. […] The plants are then placed in a greenhouse at approximately 21° C. and a relative atmospheric humidity of approximately 90%.

Another data set is described as follows: physchem. To be noted: pH 2.7.
Another data set has as its system Botrytis cinerea. The data set is described as follows: In vivo preventive test on Botrytis cinerea (grey mould). To be noted: gherkin plants, preventive spray, evaluated 4 to 5 days after inoculation. The procedure:
The young plants of gherkin are treated by spraying the active ingredient prepared as described above. Control plants are treated only with an aqueous solution of acetone/Dimethyl sulfoxide/Tween®. After 24 hours, the plants are contaminated by spraying the leaves with an aqueous suspension of Botrytis cinerea spores. The contaminated gherkin plants are incubated for 4 to 5 days at 17° C. and at 90% relative humidity.

In the next data set the test system is Septoria tritici. The data set is described as follows: In vivo preventive test on Septoria tritici (leaf spot on wheat). The settings on record: wheat plants, preventive spray, evaluated 24 days after inoculation. How it is done: The young plants of wheat are treated by spraying the active ingredient prepared as described above. Control plants are treated only with an aqueous solution of acetone/Dimethyl sulfoxide/Tween®. After 24 hours, the plants are contaminated by spraying the leaves with an aqueous suspension of Septoria tritici spores.

A further data set has as its system Pyricularia oryzae. Type of data set: in vivo. The settings on record: 500 ppm of active ingredient; rice, preventive; evaluated 8 days after inoculation.

Read-outs that look alike come from different tables or passages of the source. Marks after values point to notes of the source that are not given here.

For `CC(C)(C)C(O)(Cc1ccncc1Cl)Cn1cncn1` (centres unmarked) [Example I-4, 1-(3-chloropyridin-4-yl)-3,3-dimethyl-2-(1H-1,2,4-triazol-1-ylmethyl)butan-2-ol], the Eff. % in the data set on Puccinia recondita (100 ppm of active ingredient) is on record as 88%; with Pyrenophora teres (100 ppm of active ingredient), 83%; with Sphaerotheca fuliginea (100 ppm of active ingredient), 100%; in the data set with Uromyces appendiculatus (100 ppm of active ingredient), 100%; in [1], 100%; in the data set on Fusarium culmorum, 93%. Moreover, the Eff. % is recorded as 92% with Fusarium graminearum; 100% in data set [2]; 88% with Leptosphaeria nodorum; 99% in the data set on Phakopsora pachyrhizi (100 ppm of active ingredient); 94% with Venturia inaequalis. The compound also gave a chromatographic logP in “physchem” (reversed phase HPLC columns) of 1.74.

For the compound `CCC(C)(C)C(O)(Cc1ccncc1Cl)Cn1cncn1` (centres unmarked) [Example I-5], the Eff. % with Botrytis cinerea (100 ppm of active ingredient) stood at 89%; in the data set with Puccinia recondita (100 ppm of active ingredient), 90%; in the data set on Pyrenophora teres (100 ppm of active ingredient), 83%; in the data set with Septoria tritici (100 ppm of active ingredient), 97%; in the data set on Sphaerotheca fuliginea (100 ppm of active ingredient) it was 100%; in the data set on Uromyces appendiculatus (100 ppm of active ingredient), 100%. Also, the Eff. % in data set [1] is 100%; with Fusarium culmorum, 100%; in the data set with Fusarium graminearum it was 100%; in [2] it was 100%; with Leptosphaeria nodorum, 100%; with Pyricularia oryzae it was 93%. Besides, the LogP (pH 2.7) is 2.13^[a].

As for `CC(C)(C)C(O)(Cc1ccncc1F)Cn1cncn1` (centres unmarked) [Example I-6], the Eff. % turned out to be 100% in the data set on Botrytis cinerea (100 ppm of active ingredient); 88% in the data set on Puccinia recondita (100 ppm of active ingredient); 98% in the data set on Septoria tritici (100 ppm of active ingredient); 100% with Sphaerotheca fuliginea (100 ppm of active ingredient); 100% in the data set with Uromyces appendiculatus (100 ppm of active ingredient); 100% in data set [1]. Further, the Eff. % in the data set with Fusarium culmorum is 100%; with Fusarium graminearum, 100%; in [2] it was 100%; in the data set on Leptosphaeria nodorum it was 100%; in the data set on Phakopsora pachyrhizi (100 ppm of active ingredient) it was 99%; in the data set on Pyricularia oryzae, 94%. The compound further came in with an Eff. % in the data set on Venturia inaequalis of 96%. In addition, the LogP (pH 2.7) is 1.41^[a].

With `CCC(C)(C)C(O)(Cc1ccncc1F)Cn1cncn1` (centres unmarked) [Example I-7], the Eff. % stood at 97% with Botrytis cinerea (100 ppm of active ingredient); 81% in the data set with Puccinia recondita (100 ppm of active ingredient); 81% in the data set with Septoria tritici (100 ppm of active ingredient); 100% with Sphaerotheca fuliginea (100 ppm of active ingredient); 100% with Uromyces appendiculatus (100 ppm of active ingredient); 100% in data set [1]. In addition, the Eff. % worked out at 100% in the data set on Fusarium culmorum; 100% in the data set with Fusarium graminearum; 100% in data set [2]; 100% with Leptosphaeria nodorum; 89% with Pyricularia oryzae. Further, the LogP (method [a]: LC-MS at pH 2.7, 0.1% formic acid in water / acetonitrile gradient) is 1.73^[a].

As for `CC(C)(C)C(O)(Cc1ccnc(Cl)c1F)Cn1cncn1` (centres unmarked) [Example I-27], the Eff. % with Botrytis cinerea (500 ppm of active ingredient) came out at 100%; with Puccinia recondita (500 ppm of active ingredient), 98%; in the data set on Pyrenophora teres (500 ppm of active ingredient) it was 97%; with Septoria tritici (500 ppm of active ingredient), 97%; with Sphaerotheca fuliginea (500 ppm of active ingredient), 100%; in the data set with Uromyces appendiculatus (500 ppm of active ingredient), 100%. Further, the Eff. % in data set [1] turned out to be 100%; with Fusarium culmorum, 100%; in the data set on Fusarium graminearum, 100%; in data set [2], 100%; with Leptosphaeria nodorum it was 88%; with Phakopsora pachyrhizi (10 ppm of active ingredient), 75%. For the same compound, under “pH 2.7”, the LogP is 2.16^[a].

Turning to `CC(C)(C)C(O)(Cc1cc(F)ncc1Cl)Cn1cncn1` (centres unmarked) [Example I-29], the Eff. % in the data set with Botrytis cinerea (500 ppm of active ingredient) is recorded as 100%; in the data set with Puccinia recondita (500 ppm of active ingredient) it was 100%; in the data set with Pyrenophora teres (500 ppm of active ingredient), 93%; in the data set with Septoria tritici (500 ppm of active ingredient), 100%; in the data set with Sphaerotheca fuliginea (500 ppm of active ingredient), 100%; in the data set on Uromyces appendiculatus (500 ppm of active ingredient), 100%. Also, the Eff. % in data set [1] is 100%; in the data set with Fusarium culmorum, 100%; in the data set with Fusarium graminearum, 100%; in data set [2], 100%; in the data set on Leptosphaeria nodorum, 100%; in the data set with Phakopsora pachyrhizi (10 ppm of active ingredient), 78%. Moreover, the Eff. % with Pyricularia oryzae was determined as 71%. Further, under “pH 2.7”, the LogP is 2.39^[a].

In the case of `OC(Cc1ccncc1Cl)(CC1CC1)Cn1cncn1` (centres unmarked) [Example I-30], the Eff. % in the data set with Puccinia recondita (500 ppm of active ingredient) is reported as 94%; in the data set on Pyrenophora teres (500 ppm of active ingredient), 71%; with Septoria tritici (500 ppm of active ingredient), 100%; in the data set with Sphaerotheca fuliginea (500 ppm of active ingredient), 100%; in the data set on Uromyces appendiculatus (500 ppm of active ingredient) it was 100%; in data set [1], 100%. Also, the figures for the Eff. % (in data set [2]; in the data set with Leptosphaeria nodorum) were 100% and 88%, respectively. Moreover, where the note is “pH 2.7”, the LogP was 1.43^[a].

Turning to `CC(C)(C)C(=O)Cc1cccnc1Cl` [Example V-4, 1-(2-chloropyridin-3-yl)-3,3-dimethylbutan-2-one], the chromatographic logP in “physchem” turned out to be 2.34.

For `CC(C)(C)C1(Cc2ccncc2Cl)CO1` (centres unmarked) [XII-5, 4-[(2-tert-butyloxiran-2-yl)methyl]-3-chloropyridine], the chromatographic logP in the data set “physchem” came out at 2.8.

For the origin of these results see patent US9668481B2, “Triazole derivatives” (priority 2013, dated 2017).
